Results as given in US8263605B2, “Modulators of muscarinic receptors” (Vertex Pharmaceutical Incorporated, priority 2006, dated 2012).

What was measured:
M4 muscarinic receptor = target: T1, M4 muscarinic receptor (Homo sapiens, UniProt P08173); assay: Functional mobilization of intracellular calcium (FLIPR), M4-CHO cells; assay type: cell-based; conditions: for Emax: 100% efficacy is the maximum response obtained with the Carbachol control; for M4 Activity: CHO cells expressing M4, calcium mobilization
T1 construct: expressed in transfected cells; host or cells: CHO (M4-CHO)
T1 sequence (P08173 1-479): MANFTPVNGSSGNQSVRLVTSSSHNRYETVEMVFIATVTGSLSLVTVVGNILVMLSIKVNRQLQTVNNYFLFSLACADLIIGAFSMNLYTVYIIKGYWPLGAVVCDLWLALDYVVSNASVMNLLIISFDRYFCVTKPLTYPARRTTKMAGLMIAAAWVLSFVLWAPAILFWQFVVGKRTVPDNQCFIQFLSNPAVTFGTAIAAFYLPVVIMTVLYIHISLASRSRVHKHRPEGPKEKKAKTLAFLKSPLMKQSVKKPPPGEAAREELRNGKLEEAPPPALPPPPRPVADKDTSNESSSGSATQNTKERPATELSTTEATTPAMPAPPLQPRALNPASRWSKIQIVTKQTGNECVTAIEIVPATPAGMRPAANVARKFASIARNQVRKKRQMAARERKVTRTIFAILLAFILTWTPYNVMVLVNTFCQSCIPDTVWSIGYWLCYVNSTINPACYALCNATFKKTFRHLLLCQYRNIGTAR
Method in brief: (§1)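 Recombinant CHO cells loaded with Fluo-3 AM or Calcium 3 dye; fluorescence recorded 60 s on FLIPR in pH 7.4 buffer with 1 mM probenecid, 0.5% DMSO. Agonist mode: compound alone; antagonist mode: 15 min preincubation (or co-application) then carbachol at EC80. Efficacy relative to maximal carbachol response.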

M1 muscarinic receptor = target: T2, M1 muscarinic receptor (Homo sapiens, UniProt P11229); assay: Functional mobilization of intracellular calcium (FLIPR), M1-CHO cells; assay type: cell-based; conditions: for Emax: 100% efficacy is the maximum response obtained with the Carbachol control; for M1 Activity: CHO cells expressing M1, calcium mobilization
T2 construct: expressed in transfected cells; host or cells: CHO (M1-CHO)
T2 sequence (P11229 1-460): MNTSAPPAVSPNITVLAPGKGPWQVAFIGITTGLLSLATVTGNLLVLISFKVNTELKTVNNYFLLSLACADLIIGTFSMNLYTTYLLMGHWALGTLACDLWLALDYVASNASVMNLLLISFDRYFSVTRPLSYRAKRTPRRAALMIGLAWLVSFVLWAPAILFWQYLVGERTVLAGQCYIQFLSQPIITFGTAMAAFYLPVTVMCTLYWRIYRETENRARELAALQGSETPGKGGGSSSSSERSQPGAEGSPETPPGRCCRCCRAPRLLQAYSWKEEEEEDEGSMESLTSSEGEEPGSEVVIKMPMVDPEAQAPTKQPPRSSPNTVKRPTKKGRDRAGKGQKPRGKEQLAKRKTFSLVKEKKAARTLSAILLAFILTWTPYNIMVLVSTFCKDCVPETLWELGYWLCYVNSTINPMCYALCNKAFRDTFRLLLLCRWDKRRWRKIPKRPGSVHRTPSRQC
Method in brief: as §1

Compound | Emax (M4 muscarinic receptor) [%] | M4 Activity (M4 muscarinic receptor) | Emax (M1 muscarinic receptor) [%] | M1 Activity (M1 muscarinic receptor)
CCOC(=O)N1CC[C@@H](CN2CCC3(CC2)CN(C(=O)N(C)C)c2ccccc23)C1 [compound 96] | > 100 | +++ (activity was measured to be less than 2.0 μM) | 25 to 100 | +++ (activity was measured to be less than 2.0 μM)
C#CCOC(=O)N1CC[C@@H](CN2CCC3(CC2)CN(C(=O)N(C)C)c2ccccc23)C1 [compound 97] | 25 to 100 | +++ (activity was measured to be less than 2.0 μM) | 25 to 100 | +++ (activity was measured to be less than 2.0 μM)
CC#CCOC(=O)N1CC[C@@H](CN2CCC3(CC2)CN(C(=O)N(C)C)c2ccccc23)C1 [compound 98] | 25 to 100 | +++ (activity was measured to be less than 2.0 μM) | 25 to 100 | +++ (activity was measured to be less than 2.0 μM)
CCC#CCOC(=O)N1CC[C@@H](CN2CCC3(CC2)CN(C(=O)N(C)C)c2ccccc23)C1 [compound 99] | > 100 | +++ (activity was measured to be less than 2.0 μM) | 25 to 100 | +++ (activity was measured to be less than 2.0 μM)
C#CCOC(=O)N1CC[C@H](CN2CCC3(CC2)CN(C(=O)N(C)C)c2ccccc23)C1 [compound 100] | 25 to 100 | +++ (activity was measured to be less than 2.0 μM) | 25 to 100 | +++ (activity was measured to be less than 2.0 μM)
CC#CCOC(=O)N1CC[C@H](CN2CCC3(CC2)CN(C(=O)N(C)C)c2ccccc23)C1 [compound 101] | > 100 | +++ (activity was measured to be less than 2.0 μM) | 25 to 100 | +++ (activity was measured to be less than 2.0 μM)
CCC#CCOC(=O)N1CC[C@H](CN2CCC3(CC2)CN(C(=O)N(C)C)c2ccccc23)C1 [compound 102] | > 100 | +++ (activity was measured to be less than 2.0 μM) | 25 to 100 | +++ (activity was measured to be less than 2.0 μM)
C#CCOC(=O)N1CCCC(N2CCC3(CC2)CN(C(=O)N(C)C)c2ccccc23)CC1 (stereo not shown) [compound 104] | > 100 | +++ (activity was measured to be less than 2.0 μM) | > 100 | +++ (activity was measured to be less than 2.0 μM)
CC#CCOC(=O)N1CCCC(N2CCC3(CC2)CN(C(=O)N(C)C)c2ccccc23)CC1 (stereo not shown) [compound 105] | > 100 | +++ (activity was measured to be less than 2.0 μM) | > 100 | +++ (activity was measured to be less than 2.0 μM)
CCC#CCOC(=O)N1CCCC(N2CCC3(CC2)CN(C(=O)N(C)C)c2ccccc23)CC1 (stereo not shown) [compound 106] | 25 to 100 | +++ (activity was measured to be less than 2.0 μM) | 25 to 100 | +++ (activity was measured to be less than 2.0 μM)
CCOC(=O)N1CCCC(N2CCC3(CC2)CN(C(=O)N(C)C)c2ccccc23)CCC1 [compound 107] | > 100 | +++ (activity was measured to be less than 2.0 μM) | > 100 | +++ (activity was measured to be less than 2.0 μM)
CN(C)C(=O)N1CC2(CCN(C[C@H]3CCN(c4cnccn4)C3)CC2)c2ccccc21 [compound 108] | > 100 | +++ (activity was measured to be less than 2.0 μM) | 25 to 100 | +++ (activity was measured to be less than 2.0 μM)
CN(C)C(=O)N1CC2(CCN(C[C@@H]3CCN(c4cnccn4)C3)CC2)c2ccccc21 [compound 109] | > 100 | +++ (activity was measured to be less than 2.0 μM) | 25 to 100 | +++ (activity was measured to be less than 2.0 μM)
